These results are taken from publication PMC5007854, “β-Nitrostyrenes as Potential Anti-leishmanial Agents” (Frontiers in Microbiology, 2016).

≈ marks a conversion by molar mass, not a printed value. Read-outs that look alike come from different tables or passages of the source.

The subject of test [1] is Aspergillus niger ATCC 16404. Description: Broth microdilution antifungal susceptibility (MIC/MFC). The test is classed as cell-based. The note with it: for MIC / MFC: Aspergillus niger; for MIC: ATCC16404, 48 h. The method, boiled down:
(§1)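 CLSI broth microdilution: Ca/Mg-supplemented Mueller-Hinton for bacteria (~5 × 10^5 CFU/mL, 24 h), MOPS-buffered RPMI 1640 pH 7.0 for fungi (Candida ~2.5 × 10^4, Aspergillus 0.4-5 × 10^4 CFU/mL, 48 h), 35°C, 1% DMSO, 64 to 0.12 μg/mL. MIC read visually; MBC/MFC by plating clear wells.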
Background: Broth dilution looks for growth in wells or tubes with falling amounts of substance.

In test [2] the test system is Candida glabrata ATCC 90030. The description is as above. The test is classed as cell-based. The note with it: for MIC / MFC: Nakaseomyces glabratus; for MIC: ATCC90030, 48 h. The method, boiled down:
as §1

Test [3] concerns Aspergillus fumigatus ATCC 16424. The description is as above. The note with it: for MIC / MFC: Aspergillus fumigatus; for MIC: ATCC16424, 48 h. Type of test: cell-based. The method, boiled down: as §1
The test system of test [4] is Candida albicans ATCC 90028. The test is described as above. The conditions noted are these: for MIC / MFC: Candida albicans; for MIC: ATCC90028, 48 h. Type of test: cell-based. The procedure, abridged: as §1
Test [5] deals with nitric oxide production in L. donovani infected peritoneal macrophages. The experiment in a line: Nitrite (NO) production by Griess reaction in infected macrophages. Type of test: cell-based, BALB/c mice. The conditions noted are these: 48 h; for NO levels, in words: 0–25 μM; for NO production (nitrite): compound at 25 μM. As to the method: The supernatant from control L. donovani infected and treated macrophages were analyzed for nitrite content by the Griess reaction. In brief, equal volume of Griess reagent [1%sulphanilamide and 0.1% N-(1-naphthyl) ethylenediaminedihydrochloride in 5% phosphoric acid] was added to the culture supernatant and the plates were incubated for 10 min at room temperature using sodium nitrite as a standard. The absorbance at 550 nm was measured and the concentration of nitrite was calculated by a linear regression analyzing the standard curve generated with sodium nitrite (Varela et al., [2012]).
For orientation: Nitrite, measured by Griess reagent, commonly stands in for NO production.

The subject of test [6] is L. donovani intracellular amastigotes. The experiment in a line: Anti-amastigote activity in ex vivo macrophage model. The test is classed as cell-based, Leishmania donovani. The note with it: 48 h; for Clearance of intracellular amastigotes in Giemsa-stained micrographs: 1.56 μM; for IC50: Leishmania donovani, Peritoneal macrophage, in Mus musculus, read-out: L. donovani amastigotes IC50 ± SEM. The text has this:
BALB/c mice was used for the isolation of peritoneal macrophages in the ex vivo anti-amastigote study after prior approval from the Jamia Hamdard Animal Ethics Committee (JHAEC). JHAEC is registered under the Committee for the purpose of supervision and control of experiments on animals (CPCSEA). Mice were individually housed in the Central Animal House of Jamia Hamdard as per internationally accepted norms. The mice were kept in standard size polycarbonate cages under controlled conditions of temperature (23 ± 1°C), humidity (55 ± 10%), 12:12 h of light and dark cycle and fed with standard pellet diet and filtered water (ad libitum).
Macrophages from the peritonial cavity of BALB/c mice (1 × 10^6 cellsml^−1) were allowed to adhere to round glass coverslips in a 24 well tissue culture plate and incubated for 12 h at 37°C in a CO2 incubator. After removal of the non-adherent macrophages, the cells were infected with stationary phase promastigotes using a cell to parasite ratio of 1:10 and incubated at 37°C for 24 h. The non-phagocytosed parasites were removed by washing, and the infected macrophages incubated with the test compounds 9, 12, 14, and 18 (0–25 μM) for an additional 48 h. The coverslips were fixed in methanol and giemsa-stained for microscopic evaluation (100X) of amastigote infectivity. Number of amastigotes per 100 macrophages were enumerated and the concentration that decreased amastigotes by 50% (IC50) was determined (Wong et al., [2012]; Islamuddin et al., [2014a]).
In vitro antileishmanial activity was expressed as IC50 by linear regression analysis. Values are mean ± SE of samples in triplicate from at least three independent experiments. Statistical analysis was performed using ANOVA followed by Dunnett's test. ^*P < 0.05, ^**P < 0.01 and ^***P < 0.001 compared with the untreated control group were considered significant.

The mark [7] stands for this setting: read-out: MIC, An ATCC 16404, broth microdilution, 35°C, 48 h.
[8] abbreviates: ATCC16404, read-out: MFC, An ATCC 16404.
The mark [9] stands for this setting: broth microdilution, 35°C, 48 h.
Setting [10] is: read-out: MIC, Cg ATCC 90030, broth microdilution, 35°C, 48 h.
[11] abbreviates: ATCC90030, read-out: MFC, Cg ATCC 90030.
Setting [12] is: read-out: MIC, Af ATCC 16424, broth microdilution, 35°C, 48 h.
[13] abbreviates: ATCC16424, read-out: MFC, Af ATCC 16424.
Where [14] appears, read: read-out: MIC, Ca ATCC 90028, broth microdilution, 35°C, 48 h.
[15] abbreviates: ATCC90028, read-out: MFC, Ca ATCC 90028.
Setting [16] is: broth microdilution, 35°C, 48 h, read-out: MIC, An ATCC 16404.
The mark [17] stands for this setting: ATCC16404, ≥99.9% reduction of original inoculum, read-out: MFC, An ATCC 16404.
Where [18] appears, read: ATCC90030, ≥99.9% reduction of original inoculum, read-out: MFC, Cg ATCC 90030.
Setting [19] is: broth microdilution, 35°C, 48 h, read-out: MIC, Af ATCC 16424.
Where [20] appears, read: ATCC16424, ≥99.9% reduction of original inoculum, read-out: MFC, Af ATCC 16424.
Where [21] appears, read: ATCC90028, ≥99.9% reduction of original inoculum, read-out: MFC, Ca ATCC 90028.
[22] abbreviates: intracellular amastigotes in BALB/c peritoneal macrophages.

Usually MIC stands for the lowest concentration found to suppress growth. For orientation: MFC means the smallest concentration meeting the test's criterion for killing the fungus. A word on the IC50: it is the midpoint of a concentration-inhibition curve. As for `CC/C(=C\c1ccc([N+](=O)[O-])cc1)[N+](=O)[O-]` [Compound 9, 1-nitro-4-((E)-2-nitrobut-1-enyl) benzene], the MIC is 2 to 4 µg/mL (≈ 9 to 18 µM) in test [1] (setting [7]), 0.25 to 16 µg/mL (≈ 1.13 to 72 µM) in test [2] (setting [10]), 4 to 8 µg/mL (≈ 18 to 36 µM) in test [3] (setting [12]) and 4 to 32 µg/mL (≈ 18 to 144 µM) in test [4] (setting [14]). In addition, the MFC stood at 4 µg/mL (≈ 18 µM) in test [1] (setting [8]), 0.25 µg/mL (≈ 1.13 µM) in test [2] (setting [11]), 8 µg/mL (≈ 36 µM) in test [3] (setting [13]) and 8 µg/mL (≈ 36 µM) in test [4] (setting [15]). The “MIC, An ATCC 16404” value in test [1] (setting [9]) stood at 4 µg/mL (≈ 18 µM). Moreover, the “MIC, Cg ATCC 90030” value in test [2] (setting [9]) worked out at 0.25 µg/mL (≈ 1.13 µM). Further, the “MIC, Af ATCC 16424” value in test [3] (setting [9]) was found to be 8 µg/mL (≈ 36 µM). For the same molecule, in test [4] (setting [9]), the “MIC, Ca ATCC 90028” value is 8 µg/mL (≈ 36 µM). The “NO levels, in words” value in test [5] is on record as “moderately increased”. Besides, the “NO production (nitrite)” value in test [5] was found to be 8.05 µM. For the same molecule, the “Clearance of intracellular amastigotes in Giemsa-stained micrographs” value (“Clearance of intracellular amastigotes” for short) in test [6] is “almost total clearance”. Moreover, the half-inhibitory concentration (IC50) in test [6] came to 30.5 ± 3.42 nM.

In the case of `CC/C(=C\c1cccc([N+](=O)[O-])c1)[N+](=O)[O-]` [Compound 12, 1-nitro-3-((E)-2-nitrobut-1-enyl) benzene], the MIC in test [1] (setting [7]) is 0.5 µg/mL (≈ 2.25 µM); in test [2] (setting [10]) it was 0.25 µg/mL (≈ 1.13 µM); in test [3] (setting [12]), 1 µg/mL (≈ 4.5 µM); in test [4] (setting [14]) it was 2 µg/mL (≈ 9 µM). Further, the minimum fungicidal concentration (MFC) was 0.5 µg/mL (≈ 2.25 µM) in test [1] (setting [8]), 0.25 µg/mL (≈ 1.13 µM) in test [2] (setting [11]), 1 µg/mL (≈ 4.5 µM) in test [3] (setting [13]) and 2 µg/mL (≈ 9 µM) in test [4] (setting [15]). Besides, the “NO levels, in words” value in test [5] is reported as “moderately increased”. Also, in test [5], the “NO production (nitrite)” value stood at 7.89 µM. Moreover, in test [6], the “Clearance of intracellular amastigotes” value is given as “almost total clearance”. Moreover, the 50% inhibitory concentration (IC50) in test [6] worked out at 21.5 ± 0.96 nM.

With `COc1ccc(/C=C(\C)[N+](=O)[O-])cc1` [Compound 14, 1-methoxy-4-((E)-2-nitroprop-1-enyl) benzene], the minimum inhibitory concentration (MIC) in test [1] (setting [16]) came to 4 µg/mL (≈ 20.7 µM); in test [2] (broth microdilution, 35°C, 48 h, read-out: MIC, Cg ATCC 90030), 8 µg/mL (≈ 41.4 µM); in test [3] (setting [19]), 8 µg/mL (≈ 41.4 µM); in test [4] (broth microdilution, 35°C, 48 h, read-out: MIC, Ca ATCC 90028) it was 32 µg/mL (≈ 166 µM). For the same molecule, the minimal fungicidal concentration (MFC) in test [1] (setting [17]) was 4 µg/mL (≈ 20.7 µM); in test [2] (setting [18]), 8 µg/mL (≈ 41.4 µM); in test [3] (setting [20]), 8 µg/mL (≈ 41.4 µM); in test [4] (setting [21]), 32 µg/mL (≈ 166 µM). The “NO levels, in words” value in test [5] is recorded as “mildly induced”. Also, the “NO production (nitrite)” value in test [5] turned out to be 5.89 µM. Further, in test [6], the “Clearance of intracellular amastigotes” value was “almost total clearance”. In test [6] (setting [22]), the 50% inhibitory concentration (IC50) is 26.4 ± 2.71 nM.

Regarding `CC/C(=C\c1ccc(O)cc1)[N+](=O)[O-]` [Compound 18, 4-((E)-2-nitrobut-1-enyl) phenol], the minimal inhibitory concentration (MIC) in test [1] (setting [16]) was 2 to 4 µg/mL (≈ 10.4 to 20.7 µM); in test [3] (setting [19]), 4 to 8 µg/mL (≈ 20.7 to 41.4 µM). In addition, the MFC in test [1] (setting [17]) was 8 µg/mL (≈ 41.4 µM); in test [2] (setting [18]), 8 µg/mL (≈ 41.4 µM); in test [3] (setting [20]), 16 µg/mL (≈ 82.8 µM); in test [4] (setting [21]), 16 µg/mL (≈ 82.8 µM). The “MIC, An ATCC 16404” value in test [1] (setting [9]) came out at 4 µg/mL (≈ 20.7 µM). In addition, the “MIC, Af ATCC 16424” value in test [3] (setting [9]) was found to be 8 µg/mL (≈ 41.4 µM). For the same molecule, the “NO production (nitrite)” value in test [5] stood at 3.22 µM. The “Clearance of intracellular amastigotes” value in test [6] was “almost total clearance”. Besides, the IC50 in test [6] (setting [22]) turned out to be 61.6 ± 8.02 nM.
